Experimental findings from publication PMC10350923, “In Vitro and In Vivo Biological Activities of Dipicolinate Oxovanadium(IV) Complexes” (Journal of Medicinal Chemistry, 2023) are described below.

The term IC50 denotes the point on the concentration scale where inhibition reaches its midpoint. The term log P denotes a log measure of how a compound divides between an organic and an aqueous phase. Read a low log P as lower lipophilicity.

The test system of data set [1] is HCT116-DoxR (doxorubicin-resistant colorectal carcinoma cell line). As to the kind of experiment: MTS cell viability assay, HCT116-DoxR.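 Note: MTS colorimetric quantification of viable cells, with loss of viability tracked as complex concentration rises, in DMEM-grown HCT116-DoxR, a line whose resistance involves P-glycoprotein efflux.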 Background: Formazan colour is commonly taken as a measure of viable cells.
Protocol: (§1) To assess the cytotoxicity of vanadium complexes in tumor and healthy cells, the MTS assay, a colorimetric method that allows the quantification of viable cells present in solution,[71] was performed.
Cell culture and maintenance
(§2) The A2780 cancer cell line (ovarian carcinoma) was purchased from Sigma-Aldrich (Madrid, Spain)
(§3) while HCT116 cancer cell line (colorectal carcinoma) and the normal human primary dermal
(§4) fibroblasts were obtained from American Type Culture Collection (ATCC®, Manassas, VA, USA).
(§5) HCT116 Dox-resistant cell line (HCT116-DoxR) was derived from HCT116 parental cells, as
(§6) All cells were cultured in Dulbecco’s modified Eagle medium (DMEM), except the A2780 cell line
(§7) which was cultured in RPMI (Roswell Park Memorial Institute) medium. Both media were
(§8) supplemented with 10% (v/v) fetal bovine serum (FBS) and 1% (v/v) of a Pen/Strep
(§9) (Penicillin/Streptomycin) solution. HCT116-DoxR cell medium was additionally supplemented with
(§10) All media and supplements were purchased from Thermo Fischer Scientific (Waltham, Massachusetts, USA).
(§11) (SANYO CO2 Incubator, Electric Biomedical Co., Osaka, Japan).
(§12) HCT116, HCT116-DoxR and A2780 cancer cell lines and normal human primary fibroblasts were
(§13) used in cellular viability assays. Cells were seeded in a density of 0.75×10^5 cells/mL into 96 well-
(§14) After the 24 h of incubation, complexes were
(§15) weight and immediately solubilized in 100% (v/v) DMSO and then, diluted for the final concentration
(§16) with cell culture medium. The medium in each 96 well-plates will be replaced by fresh medium
(§17) containing each vanadium complex (concentrations ranging from 0.01 µM to 50 µM). Culture medium
(§18) with 0.1% (v/v) DMSO and 0.4 µM Dox were used as negative and positive controls, respectively.
Data set [2] deals with normal human primary dermal fibroblasts. As to the kind of experiment: MTS cell viability assay, fibroblasts.
Protocol: as §1
Cell culture and maintenance
as §2, §3, §4, §5, §6, §7, §8, §9, §10, §11, §12, §13, §14, §15, §16, §17, §18
Data set [3] has as its system A2780 (ovarian carcinoma cell line). Description: MTS cell viability assay, A2780. Type of data set: cell-based, human. The settings on record: 48 h of exposure, mean ± SEM.
For data set [4], the system named is HCT116-DoxR cells. Description: Cell cycle progression, PI, flow cytometry. The settings on record: HCT116-DoxR, 3, 9, 24, 32 h; complexes at IC50, cisplatin 5 μM, Dox 6 μM.
The subject of data set [5] is HCT116-DoxR cells. Description: Alexa Fluor 488-annexin V/PI apoptosis assay, flow cytometry. The format is cell-based, human. The following applies: 48 h, complexes at IC50, cisplatin 5 μM, Dox 6 μM.
For data set [6], the system named is HCT116-DoxR cells. As to the kind of experiment: Autophagy induction, Green Detection Reagent, flow cytometry. The settings on record: 48 h, complexes at IC50, cisplatin 5 μM, Dox 6 μM. (In general: In flow cytometry, cells or beads pass a laser one at a time.)
For data set [7], the system named is HCT116 (colorectal carcinoma cell line). Description: MTS cell viability assay, HCT116. The following applies: 48 h of exposure, mean ± SEM. The format is cell-based, human.
In another data set the test system is caspase-8. Description: Caspase-8 activity, IETD-pNA cleavage. Type of data set: cell-based, human. The following applies: HCT116-DoxR, 48 h; complexes at IC50, cisplatin 5 μM. Here is the method:
Since caspase-8 is an initiator caspase of the extrinsic apoptotic pathway, its activity was evaluated after HCT116-DoxR cells were exposed to complexes 5 and 8 (Figure 8).
The chromogenic substrate IETD-pNA, which results from the conjugation between the peptide IETD (Ile-Glu-Thr-Asp) and the chromophore p-nitroanilide (pNA), is cleaved by caspase-8 and releases pNA, which can be detected by measuring absorbance at 400 nm.[99] Therefore, if complexes 5 and 8 induce cell death through the extrinsic apoptotic pathway, there is an increase in absorbance at 400 nm compared to the control sample, corresponding to an increase in caspase-8 activity that is translated into the cleavage of the substrate IETD-pNA (Figure 8).
Antibody; Cell Signalling Technology, USA).
Assay Kit (Abnova Corporation, Walnut, CA, USA).
vanadium complexes at its IC50 concentrations.
Cells were then incubated
Flow Cytometer (Life Technologies, Carlsbad, USA).
HCT116-DoxR cell line was cultivated

Data set [8] can be described thus: n-octanol/PBS buffer partition coefficient, shake-flask, UV-vis. The following applies: room temperature.
Protocol: The lipophilicity of V(IV) complexes was investigated using the classical shake-flash method at room temperature in the two-phase system of immiscible solvents n-octanol/PBS buffer.[69],[70] The transfer of V(IV) compounds from the aqueous environment to the organic phase was monitored by UV–vis spectroscopy.
The n-octanol/PBS buffer partition coefficients (logP) were determined by shake-flash approach, and
the transfer of V(IV) compounds from the aqueous environment to the organic phase was monitored
by UV-Vis spectroscopy5,6. Solutions of 1–10 of concentrations in the range 10-100 M were prepared
in PBS buffer saturated with n-octanol from the freshly-prepared stock solution in DMSO (5mM or 50
mM), and their UV-Vis spectra were recorded. The solution of 1–10 in aqueous buffer (3 ml) were
mixed with n-octanol saturated with pH 7.4 aqueous buffer (3 ml), and the obtained mixtures were
stirred in a mechanical shaker for 30 min. The mixtures were allowed to stand at room temperature for
24 h, and after this time, the aqueous phases were separated, and the concentrations of 1–10 were
determined by measuring their UV-Vis spectra. For each complex, the highest energy absorption band was taken into consideration to determine the sample concentration.
The mark [9] stands for this setting: Homo sapiens, 48 h, read-out: IC50 HCT116-DoxR (ligands).
The mark [10] stands for this setting: Homo sapiens, Fibroblast, 48 h, read-out: IC50 fibroblasts (ligands).
Where [11] appears, read: read-out: IC50 HCT116-DoxR (ligands), free ligands, 48 h of exposure, mean ± SEM.
Where [12] appears, read: read-out: IC50 fibroblasts (ligands), free ligands, 48 h of exposure, mean ± SEM.
[13] abbreviates: read-out: IC50 HCT116-DoxR, 48 h of exposure, MTS, mean ± SEM.
The mark [14] stands for this setting: read-out: IC50 fibroblasts, 48 h of exposure, MTS, mean ± SEM.

Where “and” joins values, the source holds several entries; their conditions need not be identical. Identical values can stand only once. Like-named read-outs stand apart in the source and are kept apart here.

Take `COc1ccnc2c1ccc1c(OC)ccnc12` [4,7-(CH3O)2-phen, 4,7-dimethoxy-1,10-phenanthroline]: the IC50 in data set [1] (setting [9]) amounted to 0.3 ± 0.05 µM; in [2] (setting [10]), 10 ± 0.01 µM.

For the molecule `c1ccc2c(c1)Sc1ccccc1N2c1ccnc2c1ccc1c(N3c4ccccc4Sc4ccccc43)ccnc12` [4,7-(phtiaz)2-phen, 4,7-phenothiazine-1,10-phenanthroline], the IC50 in [1] (setting [11]) and in [2] (setting [12]) was > 50 µM in each case.

As for `Clc1ccnc2c1ccc1c(Cl)ccnc12` [4,7-Cl2-phen, 4,7-dichloro-1,10-phenanthroline], the IC50 in data set [1] (setting [9]) was found to be 16.4 ± 0.01 µM; in data set [2] (setting [10]), 17.5 ± 0.07 µM.

Take `c1ccc(-c2ccnc3c2ccc2c(-c4ccccc4)ccnc23)cc1` [4,7-Ph2-phen, 4,7-diphenyl-1,10-phenanthroline]: the IC50 is 0.3 ± 0.02 µM in data set [1] (setting [9]) and 4.4 ± 0.13 µM in data set [2] (setting [10]).

As for `c1ccc(-c2ccccn2)nc1` [Bipy, 2,2′-bipyridine], the concentration for half-maximal inhibition (IC50) in data set [1] (setting [9]) and in [2] (setting [10]) was > 50 µM throughout.

For the molecule `O=C(O)c1cccc(C(=O)O)n1` [Dipic, dipicolinate], the IC50 in data set [1] (setting [11]) and in data set [2] (setting [12]) was > 50 µM in each case.

Take `c1cnc2c(c1)ccc1cccnc12` [Phen, 1,10-phenanthroline]: the IC50 is 1.6 ± 0.03 µM in data set [1] (setting [9]) and > 50 µM in data set [2] (setting [10]).

As for `c1ccc(-c2nc3ccccc3[nH]2)nc1` [Pybim, 2-(2-pyridyl)benzimidazole], the IC50 in data set [1] (setting [9]) is 27.1 ± 0.04 µM; in data set [2] (setting [10]), ~50 µM.

Take `c1ccc(-c2ncc[nH]2)nc1` [Pyim, 2-(1H-imidazol-2-yl)pyridine]: the IC50 in data set [1] (setting [9]) and in data set [2] (setting [10]) was > 50 µM throughout.

In the case of `CC(C)(C)OO` [TBHP, tert-butyl hydroperoxide, reference compound], the IC50 in [1] (Homo sapiens, 48 h, read-out: IC50 HCT116-DoxR) amounted to 42 µM.

In the case of `N.N.[Cl][Pt][Cl]` [cisplatin, reference compound], the half-maximal inhibitory concentration (IC50) in data set [3] was found to be 1.9 ± 0.2 µM. In the data set on HCT116-DoxR cells [4], the “cell cycle arrest / cytostatic effect” value is “cytostatic effect”. In the data set on HCT116-DoxR cells [5], the early apoptosis is 31.9 ± 4.6%, the late apoptosis came out at 10.0 ± 4.2%, the necrosis is listed as 1.6 ± 0.7% and the “percentage of apoptosis (total)” value is listed as ~40%. In addition, the “increase of autophagic vesicles over the control” value in the data set with HCT116-DoxR cells [6] is ~2.3 fold. The molecule also yielded an IC50 in data set [7] of 15.6 ± 5.3 µM. In the data set on caspase-8, the “caspase-8 activity vs 0.1% DMSO” value is on record as “higher level of caspase-8”.

For `O=C1[O][V](=[O])[O]C(=O)c2cccc1n2.c1ccc(-c2ncc[nH]2)nc1` [complex 1, [VO(dipic)(pyim)]], the IC50 in data set [3] is 15 ± 0.02 µM; in data set [7] it was > 50 µM; in data set [1] (setting [13]) it was > 50 µM; in data set [2] (setting [14]), 20.2 ± 0.04 µM. The “log P” value in data set [8] is “–0.04”.

As for `O=C1[O][V](=[O])[O]C(=O)c2cccc1n2.c1ccc(-c2nc3ccccc3[nH]2)nc1` [complex 2, [VO(dipic)(pybim)]], the IC50 in data set [3] is 6.7 ± 0.02 µM; in [7], > 50 µM; in data set [1] (setting [13]), 31.4 ± 0.03 µM; in data set [2] (setting [14]), 15.7 ± 0.04 µM. In addition, in data set [8], the log partition coefficient (log P) is given as “–0.10”.

Take `O=C1C(=O)c2cccnc2-c2ncccc21.O=C1[O][V](=[O])[O]C(=O)c2cccc1n2` [complex 3, [VO(dipic)(phendione)]]: the IC50 is 0.2 ± 0.02 µM in data set [3], 1.3 ± 0.07 µM in data set [1] (setting [13]) and 0.7 ± 0.02 µM in [2] (setting [14]). Besides, the “log P” value in [8] is “–0.16”.

Consider `Clc1ccnc2c1ccc1c(Cl)ccnc12.O=C1[O][V](=[O])[O]C(=O)c2cccc1n2` [complex 4, [VO(dipic)(4,7-Cl2-phen)]], for which the IC50 in data set [3] was 2.2 ± 0.02 µM; in data set [7] it was 8.8 ± 0.02 µM; in data set [1] (setting [13]), ~9 µM and 9 µM; in data set [2] (setting [14]), 9.2 ± 0.01 µM. Further, the “log P” value in data set [8] was found to be 0.44.

For `O=C1[O][V](=[O])[O]C(=O)c2cccc1n2.c1ccc2c(c1)Sc1ccccc1N2c1ccnc2c1ccc1c(N3c4ccccc4Sc4ccccc43)ccnc12` [complex 7, [VO(dipic)(4,7-(phtiaz)2-phen)]], the IC50 was 3.1 ± 0.03 µM in data set [3], > 50 µM in [7], > 50 µM in [1] (setting [13]) and 21.7 ± 0.08 µM in data set [2] (setting [14]). In addition, the “log P” value in data set [8] was found to be 0.62.

As for `O=C1[O][V](=[O])[O]C(=O)c2cccc1n2.c1ccc(-c2ccccn2)nc1` [complex 9, [VO(dipic)(bipy)]], the IC50 in [3] was 4.8 ± 0.02 µM; in data set [7], 44 ± 0.04 µM; in data set [1] (setting [13]), 39.2 ± 0.09 µM; in data set [2] (setting [14]), 16.2 ± 0.04 µM. The “log P” value in [8] came out at 0.13.

Take `O=C1[O][V](=[O])[O]C(=O)c2cccc1n2.c1c[nH]cn1.c1c[nH]cn1` [complex 10, [VO(dipic)(im)2]]: the IC50 in [3] was 14.7 ± 0.02 µM; in data set [7], > 50 µM; in [1] (setting [13]), > 50 µM; in data set [2] (setting [14]), 20.1 ± 0.05 µM. The lipophilicity (log P) in data set [8] is on record as “–1.28”.

`O=C1C(=O)c2cccnc2-c2ncccc21` [phendione]: the IC50 in data set [1] (setting [9]) turned out to be 0.7 ± 0.01 µM; in data set [2] (setting [10]), 1.8 ± 0.05 µM.
